Patent US20110201648A1, “POLY-HETEROARYL DERIVATIVES FOR THE TREATMENT OF CANCER” (INSTITUT CURIE, priority 2008, published 2011)

Columns and labels:
[1] = UV-Vis titrations for solubility; assay type: physicochemical
Procedure: The study of UV-vis properties of pyridine-based polyheteroaromatic compounds detailed in this study enable the determination of their solubility in various conditions (DMSO, H2O and cacodylate buffers (10 mM sodium cacodylate+100 mM NaCl (for Caco.Na) or KCl (for Caco.K)): the simplest method for this is to measure the absorption spectra of compound 3 at various concentrations (from 0 to 32 μM); solubility of compound 3 is thus evaluated through the reporting of its absorbance at a given wavelength (herein 338 nm (A338)) as a function of the concentration of compound 3 and applying the Beer-Lambert law.

[2] = tested on: FPf1T (plasmodium telomeric quadruplex-DNA); assay: FRET-melting assay with FPf1T; assay type: binding, Plasmodium falciparum; conditions: 0.2 μM FPf1T, 1 μM compound
Procedure: (§1) Stabilization, and so interaction, of compounds with quadruplex-structure is monitored via FRET-melting assay, in a version that also enables the determination of the quadruplex-over duplex-DNA selectivity as well as the intra-quadruplex selectivity (17).
(§2) FRET assay is performed with oligonucleotides that mimic the human or plasmodium telomeric sequences, and equipped with FRET partners at each extremities: F21T (FAM-G3[T2AG3]3-Tamra,) FPf1T (FAM-G3[T3AG3]3-Tamra) and FPf8T (FAM-G3[T2CAG3]3-Tamra) with FAM: 6-carboxyfluorescein and Tamra: 6-carboxy-tetramethylrhodamine). Measurements were made with excitation at 492 nm and detection at 516 nm.
(§3) Fluorescence melting were carried out. The results are given on FIG. 3A-FIG. 3C. The experiments were carried out with 0.2 μM of F21T, FPf1T or FPf8T in a buffer containing 10 mM lithium cacodylate pH 7.2 and 100 mM NaCl or KCl (see example of F21T below, NaCl (left) and KCl (right)); the melting of the quadruplex-DNA was monitored alone and in the presence of 1 μM (5 equiv.) of compound 3.

[3] = tested on: FPf8T (plasmodium telomeric quadruplex-DNA); assay: FRET-melting assay with FPf8T; assay type: binding, Plasmodium falciparum; conditions: 0.2 μM FPf8T, 1 μM compound
Procedure: as §1, §2, §3

[4] = tested on: 22AG quadruplex-DNA (human telomeric sequence); assay: Fluorescence titration with 22AG; assay type: binding; conditions: 0.25 μM compound, λex=340 nm
Procedure: The quadruplex-DNA used herein is 22AG: it results from the folding of a 22 nt oligonucleotide that mimics the human telomeric sequence: 22AG is [5′-AG3(T2AG3)3-3′]. Quadruplex-structure from 22AG is prepared by heating the corresponding oligonucleotide at 90° C. for 5 min in a 10 mM sodium cacodylate buffer pH 7.2, 100 mM NaCl (for 22AG Na) or KCl (for 22AG K) and cooling in ice to favor the intramolecular folding by kinetic trapping. Concentrations are determined by UV-Vis measurements (after thermal denaturation, 5 min at 85° C.) at 260 nm before use. (see FIG. 7A and FIG. 7B).

c-myc quadruplex-DNA = assay: Fluorescence titration with c-myc; assay type: binding; conditions: 0.25 μM compound, cacodylate buffer + 100 mM KCl, λex=340 nm
Procedure: (§4) The intra-quadruplex selectivity is evaluated through fluorescence titrations by comparison of experiments carried out with 22AG (see above) and with two other quadruplex-structures: c-myc and c-kit2. The formation of these two quadruplex-DNAs is currently highly suspected in the promoter region of c-myc (see above) and c-kit (22; 29 and 30)oncogenes. The sequences are the following: c-myc: [5′-[…]-3′] and c-kit2: [(5′-[…]-3′]; Quadruplex-structures are prepared by heating the corresponding oligonucleotide at 90° C. for 5 min in a 10 mM sodium cacodylate buffer pH 7.2, 100 mM KCl and cooling in ice to favor the intramolecular folding by kinetic trapping. Concentrations are determined by UV-Vis measurements (after thermal denaturation, 5 min at 85° C.) at 260 nm before use.

c-kit2 quadruplex-DNA [5] = assay: Fluorescence titration with c-kit2; assay type: binding; conditions: 0.25 μM compound, cacodylate buffer + 100 mM KCl, λex=340 nm
Procedure: as §4

c-kit2 quadruplex-DNA [6] = assay: Circular dichroism with c-kit2; assay type: binding; conditions: 3 μM c-kit2, 30 μM compound, 100 mM KCl, 285 nm
Procedure: Circular dichroism (CD) enables a deep study of the modification of the DNA structure upon the binding of a ligand; it thus reflects the affinity of the ligand to its target, and can also provide insight into its binding mode (Paramasivan et al, Methods, 2007, 43, 324).
The intra-quadruplex selectivity is evaluated through CD by comparison of experiments carried out with 22AG (see above) and with two other quadruplex-structures: c-myc and c-kit2 (see above). The results are given on FIG. 11A and FIG. 11B. To a 3 μM solution of both c-kit2 (left) and c-myc (right) in cacodylate buffer (10 mM sodium cacodylate+100 mM KCl) is added an excess of compound 3 (30 μM, 10 equiv.).

[7] = tested on: HT1080GFP-POT1 human fibrosarcoma and U20S human osteosarcoma cells; assay: Inhibition of cell proliferation, viable cell count with trypan blue; assay type: cell-based; conditions: 72 hours, read-out: IC50 proliferation of cancer cells
Procedure: The HT1080 human fibrosarcoma cell line stably transfected with pEGFP-POT1 vector (HT1080GFP-POT1) has been previously described (32) and U20S human osteosarcoma was from American Type Culture Collection (Rockville, USA). Cells were grown in Dublecco's modified Eagles's medium (Invitrogen) supplemented with 10% v/v fetal bovine serum and with 400 μg/ml geneticin for HT1080GFP-POT1. Cells were plated in 6-wells culture plates on day 0 at 4.5×10^4 cells/well in the presence of different concentrations of compound 3 (10, 3, 1, 0.3 and 0.1 μM), each concentration in duplicate, and cultured for further 72 hours. At day 3, cells were washed with 1×PBS and trypsinized. For each treated cell sample, the number of viable cells was determined in the presence of trypan blue. Results are given on FIG. 15A and FIG. 15B. They correspond to the relative cell number in percent as compared to control untreated cells defined as 100%.

c1cc(-c2cnc(-c3cccc(-c4cnco4)n3)o2)nc(-c2cnc(-c3cccc(-c4cnco4)n3)o2)c1 [compound 3, 2,6-bis{2-[6-(oxazol-5-yl)pyridin-2-yl]oxazol-5-yl}pyridine]
solubility ([1]; DMSO, H2O and aqueous cacodylate buffers (Na+ or K+-rich), A338, 0 to 32 μM): soluble in all the solvent systems used herein
self-aggregation ([1]; within the 0 to 32 μM concentration range, all solvent systems): does not self-aggregate
ΔT1/2 FPf1T ([2]; K+ (100 mM KCl)): 2.1 °C
ΔT1/2 FPf1T ([2]; Na+ (100 mM NaCl)): 20.4 °C
ΔT1/2 FPf8T ([3]; K+ (100 mM KCl)): 1.5 °C
ΔT1/2 FPf8T ([3]; Na+ (100 mM NaCl)): 16.3 °C
fluorescence of compound upon addition of 22AG K ([4]; cacodylate buffer + 100 mM KCl): progressive quench of the fluorescence
fluorescence of compound upon addition of 22AG Na ([4]; cacodylate buffer + 100 mM NaCl): progressive quench of the fluorescence
fluorescence of compound upon addition of c-myc (c-myc quadruplex-DNA): progressive quench of the fluorescence
fluorescence of compound upon addition of c-kit2 (c-kit2 quadruplex-DNA [5]): progressive quench of the fluorescence
CD signal of c-kit2 (c-kit2 quadruplex-DNA [6]): modification of the amplitude of the CD signal
IC50 [7]: 0.1 to 1 µM
melting point: > 250 °C
